pIC50: −log10 of the molar value.
Key:
[1] = tested on: m5-HT3A/ZAC; experiment: TEVC, chimeric m5-HT3A/ZAC receptor in oocytes; type: cell-based, mouse/human; settings: 30 μM, 0.3 μM 5-HT
Protocol: (§1) The cDNAs for the various WT and chimeric CLR subunits were linearized and subsequently transcribed and capped mMessage mMachine T7 RNA transcription kit (Ambion, Waltham, MA). […]
(§2) On the day of experiment, all compound dilutions were prepared in a saline solution [115 mM NaCl, 2.5 mM KCl, 10 mM MOPS (pH 7.5), 1.8 mM CaCl2, 0.1 mM MgCl2] and pH adjusted to 7.5 (if needed). […] Currents were recorded using pCLAMP 10 (Molecular Devices, Sunnyvale, CA). […]
(§3) In all recordings, the compounds or compound combinations were applied in the bath until the peak current decayed to a steady state (up to 30 sec at the most). […] The functional properties of the modulators at the CLRs were determined by pre-application of the modulator to the perfusate 30 sec and followed by co-application of the modulator and the agonist to the perfusate. […]
(§4) Data analysis of the results from the TEVC recordings were performed using Clampfit software version 10.5 (Molecular Devices, Crawley, UK) and GraphPad Prism version 7.0c (GraphPad Software, Inc. La Jolla, CA). […] I-V relationships were analyzed by fitting the curves with a third order polynomial model. […]

[2] = molecular target: hα1β2γ2s GABAAR (Homo sapiens, UniProt P14867+P18507+P47870); experiment: TEVC selectivity, hα1β2γ2s GABAAR in oocytes; type: cell-based; settings: 30 μM, 30 s preapplication, 30 μM GABA (EC20–EC40)
Sequence of hα1β2γ2s GABAAR (P14867 28-456): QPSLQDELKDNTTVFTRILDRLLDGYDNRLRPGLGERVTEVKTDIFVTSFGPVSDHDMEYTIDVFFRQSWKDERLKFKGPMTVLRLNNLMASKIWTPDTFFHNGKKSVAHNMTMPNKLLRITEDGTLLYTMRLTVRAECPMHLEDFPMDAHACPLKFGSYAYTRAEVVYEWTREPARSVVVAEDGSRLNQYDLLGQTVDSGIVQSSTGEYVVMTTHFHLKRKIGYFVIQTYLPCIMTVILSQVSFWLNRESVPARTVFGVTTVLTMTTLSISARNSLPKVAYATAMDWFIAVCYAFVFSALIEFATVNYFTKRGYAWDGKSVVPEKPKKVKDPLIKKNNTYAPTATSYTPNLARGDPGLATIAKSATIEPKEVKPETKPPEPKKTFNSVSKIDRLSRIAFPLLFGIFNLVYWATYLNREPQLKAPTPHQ
Sequence of hα1β2γ2s GABAAR (P47870 25-512 limits assumed): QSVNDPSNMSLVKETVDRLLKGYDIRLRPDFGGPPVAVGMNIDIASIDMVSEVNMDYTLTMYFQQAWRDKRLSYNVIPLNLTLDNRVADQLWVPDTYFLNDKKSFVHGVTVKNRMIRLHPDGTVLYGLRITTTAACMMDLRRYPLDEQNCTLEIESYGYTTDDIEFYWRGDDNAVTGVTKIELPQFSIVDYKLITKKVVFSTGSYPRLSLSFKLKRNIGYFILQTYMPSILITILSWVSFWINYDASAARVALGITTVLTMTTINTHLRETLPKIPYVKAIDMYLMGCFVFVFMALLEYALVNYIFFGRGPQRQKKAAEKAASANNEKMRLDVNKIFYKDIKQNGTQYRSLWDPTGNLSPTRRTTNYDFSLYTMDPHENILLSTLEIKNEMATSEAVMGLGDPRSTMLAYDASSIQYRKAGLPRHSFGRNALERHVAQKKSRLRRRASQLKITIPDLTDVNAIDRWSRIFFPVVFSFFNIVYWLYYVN
Sequence of hα1β2γ2s GABAAR (P18507 40-467 isoform P18507-1 limits assumed): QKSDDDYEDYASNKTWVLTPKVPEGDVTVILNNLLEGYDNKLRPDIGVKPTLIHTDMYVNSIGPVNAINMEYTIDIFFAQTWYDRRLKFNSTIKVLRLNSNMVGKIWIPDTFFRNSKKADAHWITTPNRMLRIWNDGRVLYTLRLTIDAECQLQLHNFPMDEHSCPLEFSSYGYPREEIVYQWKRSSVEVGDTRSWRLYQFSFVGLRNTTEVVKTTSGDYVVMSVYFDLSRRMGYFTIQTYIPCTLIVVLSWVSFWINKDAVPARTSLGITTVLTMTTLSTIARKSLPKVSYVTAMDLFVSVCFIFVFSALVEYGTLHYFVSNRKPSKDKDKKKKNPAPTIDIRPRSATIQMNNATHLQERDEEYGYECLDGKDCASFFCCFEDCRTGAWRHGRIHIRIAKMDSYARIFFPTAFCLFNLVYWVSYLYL
Protocol: as §1, §2, §3, §4

[3] = molecular target: T1, hα1 GlyR (Homo sapiens, UniProt P23415); experiment: TEVC selectivity, hα1 GlyR in oocytes; type: cell-based; settings: 30 μM, 30 s preapplication, 100 μM glycine (EC20–EC40)
T1 sequence (P23415 29-457): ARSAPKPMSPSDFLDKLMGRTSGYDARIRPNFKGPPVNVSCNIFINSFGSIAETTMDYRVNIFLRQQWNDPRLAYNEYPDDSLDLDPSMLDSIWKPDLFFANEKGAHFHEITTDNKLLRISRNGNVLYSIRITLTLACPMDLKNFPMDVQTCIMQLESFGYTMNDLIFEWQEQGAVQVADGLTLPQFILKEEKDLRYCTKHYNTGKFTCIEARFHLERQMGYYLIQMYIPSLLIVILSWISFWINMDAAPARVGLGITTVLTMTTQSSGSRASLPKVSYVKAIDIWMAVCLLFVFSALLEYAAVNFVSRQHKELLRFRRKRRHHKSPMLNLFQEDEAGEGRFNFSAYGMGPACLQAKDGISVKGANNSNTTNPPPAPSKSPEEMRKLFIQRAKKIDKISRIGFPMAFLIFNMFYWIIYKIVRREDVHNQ
Protocol: as §1, §2, §3, §4

[4] = molecular target: T2, ZAC (Homo sapiens, UniProt Q401N2); experiment: TEVC recordings, Zn2+-evoked currents at ZAC expressed in Xenopus oocytes; type: cell-based; settings: for Antagonist activity at ZAC in SAR study (in words): tested at three concentrations (0.3-3-30 μM or 1-10-100 μM); for IC50: steady-state current, read-out: pIC50 ± S.E.M. (converted)
T2 sequence (Q401N2 26-412): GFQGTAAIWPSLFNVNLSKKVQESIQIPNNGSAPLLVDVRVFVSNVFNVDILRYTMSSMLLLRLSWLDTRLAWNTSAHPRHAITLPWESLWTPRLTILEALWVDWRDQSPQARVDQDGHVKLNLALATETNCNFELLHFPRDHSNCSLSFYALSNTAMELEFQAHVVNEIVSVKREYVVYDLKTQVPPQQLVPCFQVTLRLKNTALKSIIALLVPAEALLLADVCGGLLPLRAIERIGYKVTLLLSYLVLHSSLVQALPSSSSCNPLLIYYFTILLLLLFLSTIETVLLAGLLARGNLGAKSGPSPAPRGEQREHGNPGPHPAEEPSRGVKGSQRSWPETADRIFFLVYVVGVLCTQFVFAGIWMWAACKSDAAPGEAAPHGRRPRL
Protocol: (§5) The cDNAs for the various WT and chimeric CLR subunits were linearized and subsequently transcribed and capped mMessage mMachine T7 RNA transcription kit (Ambion, Waltham, MA). Different amounts of cRNA mixtures were injected for ZAC (9.2–36.8 nL in a concentration of 0.05 μg/μL), […] nAChR (9.2–36.8 nL in a concentration of 0.1 μg/μL of each subunit in a ratio of 1:1), hα1 GlyR (9.2–36.8 nL in a concentration of 0.05 μg/μL), hα1β2γ2s GABAAR (9.2–36.8 nL in a concentration of 0.05 μg/μL of each subunit in a ratio of 1:1:3), m5-HT3AR (9.2–36.8 nL in a concentration of 0.05 μg/μL), m5-HT3A/ZAC (9.2–36.8 nL in a concentration of 0.207 μg/μL), and ZAC/hai-Gly (9.2–36.8 nL in a concentration of 0.206 μg/μL). Oocytes were incubated in a sterile modified Barth’s solution [88 mM NaCl, 1 mM KCl, 15 mM HEPES (pH 7.5), 2.4 mM NaHCO3, 0.41 mM CaCl2, 0.82 mM MgSO4, 0.3 mM Ca(NO3)2, 100 U/ml penicillin and 100 μg/ml strep-tomycin] at 18 °C for 2 days after injection.
(§6) On the day of experiment, all compound dilutions were prepared in a saline solution [115 mM NaCl, 2.5 mM KCl, 10 mM MOPS (pH 7.5), 1.8 mM CaCl2, 0.1 mM MgCl2] and pH adjusted to 7.5 (if needed). Oocytes were placed in a recording chamber continuously perfused with this saline solution, and the compounds were applied in the perfusate. Both voltage and current electrodes were agar-plugged with 3 M KCl with a resistance of 0.2–2.0 MΩ. Oocytes were voltage-clamped at −50 mV (unless otherwise stated) by a Gene Clamp 500B amplifier (Axon Instruments, Union City, CA), while current signals were digitized by a Digidata 1320. Currents were recorded using pCLAMP 10 (Molecular Devices, Sunnyvale, CA). The recordings were performed at room temperature.
In all recordings, the compounds or compound combinations were applied in the bath until the peak current decayed to a steady state (up to 30 sec at the most). […] The functional properties of the modulators at the CLRs were determined by pre-application of the modulator to the perfusate 30 sec and followed by co-application of the modulator and the agonist to the perfusate. In all recordings, washes of 1–5 min were executed between the applications to prevent receptor desensitization, the duration of these washes depending on the kinetics of the respective receptors and the “stickyness” of the respective compounds. […] For the selectivity and mode-of-action studies, the agonist concentrations used for different CLRs or chimeric CLRs were in the EC20–EC40 range (verified on the day of experiment), as this enabled us to investigate both for putative positive and negative receptor modulation exerted by TTFB (hα3β4 nAChR, 3 μM (S)-nicotine; m5-HT3AR, 2 μM 5-HT; hα1 GlyR, 100 μM glycine; hα1β2γ2S GABAAR, 30 μM GABA; m5-HT3A/ZAC, 0.3 μM 5-HT; ZAC/hɑ1-Gly, 2 μM Zn^2+).
Data analysis of the results from the TEVC recordings were performed using Clampfit software version 10.5 (Molecular Devices, Crawley, UK) and GraphPad Prism version 7.0c (GraphPad Software, Inc. La Jolla, CA). Data for the test compounds were normalized to either the maximal agonist-evoked current or to an EC20–EC50-mediated response elicited by the agonist on each oocyte (specified in each case). Unless otherwise stated, data for agonist-induced responses in the presence of the antagonists were extracted from the plateau (or steady-state) of the agonist-evoked current. Concentration-response and concentration-inhibition curves were fitted in GraphPad Prism by nonlinear regression using the equation for sigmoidal dose-response with variable slope. I-V relationships were analyzed by fitting the curves with a third order polynomial model. Each data point represents the mean ± S.E.M. value of recordings performed on at least five oocytes from at least two different batches.

[5] = molecular target: T2, ZAC; experiment: TEVC recordings, spontaneous ZAC activity in Xenopus oocytes; type: cell-based; settings: for pIC50: read-out: IC50
Protocol: as §5, §6
In all recordings, the compounds or compound combinations were applied in the bath until the peak current decayed to a steady state (up to 30 sec at the most). […] The functional properties of the modulators at the CLRs were determined by pre-application of the modulator to the perfusate 30 sec and followed by co-application of the modulator and the agonist to the perfusate. In all recordings, washes of 1–5 min were executed between the applications to prevent receptor desensitization, the duration of these washes depending on the kinetics of the respective receptors and the “stickyness” of the respective compounds. […]
as §4

[6] = block of spontaneous ZAC activity (leak current), TEVC

| SMILES | Modulation of 5-HT-induced response [1] | Agonist, antagonist or PAM activity [2] | Agonist, antagonist or PAM activity [3] | Inhibition of ZAC at 10 μM (in words) ([4]; 10 μM compound, 1 mM Zn2+ as agonist) | Antagonist activity at ZAC in SAR study (in words) ([4]; 1 mM Zn2+ as agonist) | Fitted inhibition range, Inhibition (%) ([4]; Zn2+ (1 mM) as agonist, TEVC) | Hill coefficient nH ± S.E.M. ([4]; Zn2+ (1 mM) as agonist, TEVC) | IC50 ([4]; Zn2+ (1 mM) as agonist, TEVC) [µM] | Extent of inhibition of Zn2+-induced responses (in words) ([4]; Zn2+ (1 mM), full concentration-inhibition curves) | Equilibrium potential ([5]; TTFB (100 μM)-induced currents, holding potentials −60 mV to +60 mV) [mV] | pIC50 [5, 6] | IC50 ([5]; block of spontaneous ZAC activity (leak current), TEVC, read-out: pIC50 ± S.E.M. (converted)) [µM] | Mode of antagonism ([4]; Zn2+ concentration-response curves in absence and presence of various concentrations of the compound) |
| --- | --- | --- | --- | --- | --- | --- | --- | --- | --- | --- | --- | --- | --- |
| CC(C)(C)c1csc(NC(=O)c2cccc(F)c2)n1 [5a, N-(4-(tert-butyl)thiazol-2-yl)-3-fluorobenzamide] | complete inhibition | did not display significant activity | did not display significant activity | almost complete inhibition | roughly equipotent with 2b | 91 ± 3 | −1.5 ± 0.08 | 3.02 | completely | −11.5 | 5.33 | 4.79 | – |
| COC(=O)c1sc(NC(=O)c2cc(Br)ccc2Cl)nc1C [compound 1, 2-(5-bromo-2-chlorobenzamido)-4-methylthiazole-5-methyl ester] | – | – | – | – | weaker antagonists | – | −1.3 ± 0.13 | 4.07 | – | – | 5.13 | – | largely non-competitive |
